Test results reported in ChEMBL document CHEMBL1201862, “PubChem BioAssay data set” (2004).
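Assay format: 96-well plates, 48-hour exposure. Abbreviation: GI50, concentration required for 50% inhibition of growth.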 Calls of active or inactive are those of the source. Rule as the data show it: active = GI50 up to about 1.1 µM and inactive = higher. Bridge positions count the residues as written; N and C are the ends. Peptide text beside a SMILES is read from it. * marks the point of attachment. Cbz = O=C(OCc1ccccc1)*

Legend:
Assay in all cases: DTP human tumour cell line panel, 48 h
SNB-19 = system: SNB-19
U-251 = system: U-251
OVCAR-8 = system: OVCAR-8
TK-10 = system: TK-10
MDA-MB-231 = system: MDA-MB-231
T47D = system: T47D
PC-3 = system: PC-3
M14 = system: M14
SNB-75 = system: SNB-75
MCF7 = system: MCF7
MOLT-4 = system: MOLT-4
HCT-15 = system: HCT-15
SN12C = system: SN12C
UACC-257 = system: UACC-257
RXF 393 = system: RXF 393
786-0 = system: 786-0
COLO 205 = system: COLO 205
SK-MEL-2 = system: SK-MEL-2
NCI-H226 = system: NCI-H226
HOP-92 = system: HOP-92

SMILES	GI50 (SNB-19)	GI50 (U-251)	GI50 (OVCAR-8)	GI50 (TK-10)	GI50 (MDA-MB-231)	GI50 (T47D)	GI50 (PC-3)	GI50 (M14)	GI50 (SNB-75)	GI50 (MCF7)	GI50 (MOLT-4)	GI50 (HCT-15)	GI50 (SN12C)	GI50 (UACC-257)	GI50 (RXF 393)	GI50 (786-0)	GI50 (COLO 205)	GI50 (SK-MEL-2)	GI50 (NCI-H226)	GI50 (HOP-92)
Cc1cc(=O)oc2c(C3=NN(C=O)C(c4ccccc4)C3)c(O)ccc12 (stereo not given)	47.4 µM (inactive)	32.7 µM (inactive)	71.1 µM (inactive)	57.4 µM (inactive)	59.6 µM (inactive)	> 100 µM (inactive)	> 74.1 µM (inactive)	51.9 µM (inactive)	3.22 µM (inactive)	> 50.5 µM (inactive)	> 73.6 µM (inactive)	> 78.5 µM	90.2 µM (inactive)	83.4 µM (inactive)	38.2 µM (inactive)	26.1 µM (inactive)	> 71.8 µM (inactive)	52.5 µM (inactive)	> 76 µM (inactive)	23 µM (inactive)
Cc1nc(=O)[nH]c2c1C(=O)N(C(C)C)C(NC(C)C)S2 (stereo not given)	> 100 µM (inactive)	> 100 µM (inactive)	> 100 µM (inactive)	> 100 µM (inactive)	> 100 µM (inactive)	90.2 µM (inactive)	41.2 µM (inactive)	> 100 µM (inactive)	> 100 µM (inactive)	> 100 µM (inactive)	> 100 µM (inactive)	93.8 µM	> 100 µM (inactive)	> 100 µM (inactive)	> 100 µM (inactive)	> 100 µM (inactive)	> 100 µM (inactive)	> 100 µM (inactive)	> 100 µM (inactive)	97.7 µM (inactive)
O=C1c2cc(I)ccc2N2CCN=C2N1Cc1ccccc1	63.8 µM (inactive)	49.5 µM (inactive)	55 µM (inactive)	> 100 µM (inactive)	> 100 µM (inactive)	58.7 µM (inactive)	> 100 µM (inactive)	> 100 µM (inactive)	19.7 µM (inactive)	> 100 µM (inactive)	4.46 µM (inactive)	> 100 µM	> 100 µM (inactive)	> 100 µM (inactive)	23.7 µM (inactive)	96.6 µM (inactive)	> 100 µM (inactive)	> 100 µM (inactive)	> 100 µM (inactive)	17.7 µM (inactive)
COC1=CC(=O)C2=C(C1=O)[C@H]1CC[C@]3(C)[C@@H](O)CC[C@H]3[C@@H]1CC2	24.4 µM (inactive)	17 µM (inactive)	17.8 µM (inactive)	27.9 µM (inactive)	2.21 µM (inactive)	13.8 µM (inactive)	16.4 µM (inactive)	17.5 µM (inactive)	17.9 µM (inactive)	17 µM (inactive)	3.48 µM (inactive)	18 µM	17 µM (inactive)	16.4 µM (inactive)	20.8 µM (inactive)	19.5 µM (inactive)	10.7 µM (inactive)	13.9 µM (inactive)	17.7 µM (inactive)	21.6 µM (inactive)
O=C(CSc1nc(O)nc2[nH]cnc12)Nc1ccccc1	> 100 µM (inactive)	33.1 µM (inactive)	> 100 µM (inactive)	> 100 µM (inactive)	> 100 µM (inactive)	> 100 µM (inactive)	36.6 µM (inactive)	> 100 µM (inactive)	> 100 µM (inactive)	44.6 µM (inactive)	93.5 µM (inactive)	61.9 µM	48.5 µM (inactive)	86.9 µM (inactive)	> 100 µM (inactive)	57.5 µM (inactive)	> 100 µM (inactive)	> 100 µM (inactive)	37.1 µM (inactive)	> 100 µM (inactive)
[N-]=[N+]=Nc1ccc(CNc2cc(=O)[nH]c(=O)[nH]2)cc1	> 100 µM (inactive)	> 100 µM (inactive)	> 100 µM (inactive)	> 100 µM (inactive)	> 100 µM (inactive)	> 100 µM (inactive)	> 100 µM (inactive)	> 100 µM (inactive)	> 100 µM (inactive)	> 100 µM (inactive)	> 100 µM (inactive)	> 100 µM	> 100 µM (inactive)	> 100 µM (inactive)	> 100 µM (inactive)	> 100 µM (inactive)	> 100 µM (inactive)	> 100 µM (inactive)	> 100 µM (inactive)	> 100 µM (inactive)
CNC(=O)C1CCCCNC(=O)CCC(NC(=O)OCc2ccccc2)C(=O)N1 (stereo not drawn) (Cbz-Glu-Lys-NHMe; lactam 1-2; configuration not given here)	> 100 µM (inactive)	> 100 µM (inactive)	> 100 µM (inactive)	> 100 µM (inactive)	> 100 µM (inactive)	> 100 µM (inactive)	> 100 µM (inactive)	> 100 µM (inactive)	> 100 µM (inactive)	> 100 µM (inactive)	> 100 µM (inactive)	> 100 µM	> 100 µM (inactive)	> 100 µM (inactive)	> 100 µM (inactive)	> 100 µM (inactive)	> 100 µM (inactive)	> 100 µM (inactive)	> 100 µM (inactive)	> 100 µM (inactive)
